Assay results from ChEMBL document CHEMBL5506015, “Discovery of a Meisoindigo-Derived PROTAC as the ATM Degrader: Revolutionizing Colorectal Cancer Therapy via Synthetic Lethality with ATR Inhibitors” (J Med Chem, 2024).
Calls of active or inactive are those of the source. The rule behind the calls is not given here.

Tests used:
SW480 [1] = test: Cytotoxicity against human SW480 cells assessed as reduction in cell viability incubated for 48 hrs by MTT assay; details: SW480, 48 h
NCI-H358 = test: Cytotoxicity against human NCI-H358 cells assessed as reduction in cell viability incubated for 48 hrs by MTT assay; details: NCI-H358, 48 h
SW480 [2] = test: Downregulation of BCL2 level in human SW480 cells at 5 to 20 uM measured after 8 hrs by immunoblot analysis; format: functional, cell-based; details: dose 5-20 µM
SW-620 [3] = test: Downregulation of ATM level in human SW620 cells measured after 12 hrs by immunoblot analysis; format: functional, cell-based; details: dose 2.5-10 µM
SW-620 [4] = test: Antitumor activity against human SW620 cells xenografted in Balb/c nude mouse model assessed as increase in gamma-H2AX level at 15 mg/kg/day measured after 14 days by Western blot analysis; format: functional, organism-based; details: time 14.0 day
[5] = Cytotoxicity against human HIEC-6 cells assessed as reduction in cell viability incubated for 48 hrs by MTT assay; format: toxicity, cell-based
SW480 [6] = test: Downregulation of ATM level in human SW480 cells measured after 12 hrs by immunoblot analysis; format: functional, cell-based; details: dose 1.25-10 µM
SW-620 [7] = test: Downregulation of PROX1 level in human SW620 cells at 10 uM measured after 12 hrs in presence of tert-butyl ((S)-1-((2S,4R)-4-hydroxy-2-((4-(4-methylthiazol-5-yl)benzyl)carbamoyl)pyrrolidin-1-yl)-3,3-dimethyl-1-oxobutan-2-yl)carbamate by immunoblot analysis; format: functional, cell-based
SW-620 [8] = test: Cytotoxicity against human SW620 cells transfected with ATM shRNA assessed as reduction in cell viability measured after 48 hrs by MTT assay; details: SW-620, 48 h
[9] = Toxicity in Balb/c nude mouse assessed as effect on body weight loss at 15 mg/kg/day administered for 14 days […]; format: organism-based; details: in vivo, 336 h, time 14 day
SW480 [10] = test: Downregulation of ATM level in human SW480 cells at 10 uM by immunoblot analysis; format: functional, cell-based; details: time <= 12.0 hrs, TDE = time-dependent effect
HCT-116 = test: Cytotoxicity against human HCT-116 cells transfected with ATM shRNA assessed as reduction in cell viability measured after 48 hrs by MTT assay; details: HCT-116, 48 h
SW-620 [11] = test: Antitumor activity against human SW620 cells xenografted in Balb/c nude mouse model assessed as fibrosis at 15 mg/kg/day measured after 14 days by H and E staining based analysis; format: functional, organism-based; details: time 14.0 day
SW480 [12] = test: Cytotoxicity against human SW480 cells transfected with ATM shRNA assessed as reduction in cell viability measured after 48 hrs by MTT assay; details: SW480, 48 h
SW-620 [13] = test: Induction of cell cycle arrest in human SW620 cells assessed as accumulation of cells at G0/G1 phase incubated for 12 hrs by flow cytometry based analysis; format: functional; details: dose 5-10 µM
K562 [14] = test: Induction of DNA damage in human K562 cells assessed as accumulation of phosphorylated-chk2 (Thr68) at 20 uM by immunoblot analysis; format: functional, cell-based; details: time <= 12.0 hrs, TDE = time-dependent effect
SW-620 [15] = test: Downregulation of ATM level in human SW620 cells at 10 uM by immunoblot analysis; format: functional, cell-based; details: time <= 24.0 hrs, TDE = time-dependent effect
SW-620 [16] = test: Antitumor activity against human SW620 cells xenografted in Balb/c nude mouse model assessed as increase in gamma-H2AX at 15 mg/kg/day measured after 14 days by Western blot analysis; format: functional, organism-based; details: time 14.0 day
SW-620 [17] = test: Antitumor activity against human SW620 cells xenografted in Balb/c nude mouse model assessed as reduction in tumor load at 15 mg/kg/day administered for 14 days in presence of AZD6738 by vernier caliper based analysis; format: functional, organism-based; details: time 14.0 day
[18] = Downregulation of ATM level in human SW480 cells transfected with ATM shRNA by immunoblot analysis; format: functional
K562 [19] = test: Induction of DNA damage in human K562 cells assessed as accumulation of phosphorylated-chk2 (Thr68) measured after 8 hrs by immunoblot analysis; format: functional, cell-based
[20] = Downregulation of ATM level in human SW620 cells transfected with NC shRNA by immunoblot analysis; format: functional, SW-620
SW-620 [21] = test: Antitumor activity against human SW620 cells xenografted in Balb/c nude mouse model assessed as decrease in cleaved caspase 3 level at 15 mg/kg/day measured after 14 days by Western blot analysis; format: functional, organism-based; details: time 14.0 day
K562 [22] = test: Upregulation of cleaved caspase 3 level in human K562 cells at 5 to 20 uM measured after 8 hrs by immunoblot analysis; format: functional, cell-based; details: dose 5-20 µM
SW-620 [23] = test: Downregulation of KDM4B level in human SW620 cells measured after 12 hrs by immunoblot analysis; format: functional, cell-based; details: dose 1.25-10 µM
[24] = Downregulation of ATM level in human SW480 cells transfected with NC shRNA by immunoblot analysis; format: functional
[25] = Downregulation of ATM level in human HCT-116 cells transfected with NC shRNA by immunoblot analysis; format: functional
SW-620 [26] = test: Downregulation of BCL2 level in human SW620 cells at 1.25 to 10 uM measured after 12 hrs by immunoblot analysis; format: functional, cell-based; details: dose 1.25-10 µM
SW-620 [27] = test: Antitumor activity against human SW620 cells xenografted in Balb/c nude mouse model assessed as reduction in tumor load at 15 mg/kg/day administered for 14 days by vernier caliper based analysis; format: functional, organism-based; details: time 14.0 day

Cc1ncsc1-c1ccc(CNC(=O)[C@@H]2C[C@@H](O)CN2C(=O)[C@@H](NC(=O)CCCCCn2cc(CCCN3C(=O)/C(=C4/C(=O)Nc5ccccc54)c4ccccc43)nn2)C(C)(C)C)cc1
IC50 (SW480 [1]): 2590 nM | IC50 (NCI-H358): > 20 µM | Activity (SW480 [2]): Active | Activity (SW-620 [3]): Dose-Dependent Effect | Activity (SW-620 [4]): Active | IC50 at 48 h ([5]; HIEC-6 cells): 23.9 µM | Activity ([5]; hiec-6, 48 h, dose 0.01-50 µM, time 48 hrs): Dose-Dependent Effect | Activity (SW480 [6]): Dose-Dependent Effect | Activity (SW-620 [7]): Active | IC50 (SW-620 [8]): 9.81 µM | Activity [9]: Non-Toxic | Activity (SW480 [10]): Tde | IC50 (HCT-116): 26.4 µM | Activity (SW-620 [11]): Active | IC50 (SW480 [12]): 12.1 µM | Activity (SW-620 [13]): Dose-Dependent Effect | Activity (K562 [14]): Tde | Activity (SW-620 [15]): Tde | Activity (SW-620 [16]): Active | Activity (SW-620 [17]): Active | Activity [18]: 23% | Activity (K562 [19]): Dose-Dependent Effect | Activity [20]: 100% | Activity (SW-620 [21]): Active | Activity (K562 [22]): Active | Activity (SW-620 [23]): Dose-Dependent Effect | Activity [24]: 100% | Activity [25]: 100% | Activity (SW-620 [26]): Active | Activity (SW-620 [27]): Active
